Calls of active or inactive are those of the source. The calls are words filed in the database; no cut-off is given here.
How the values were obtained:
SK-OV-3 [1] = assay: Potentiation of olaparib sensitivity in human SK-OV-3 cells assessed as downregulation of EMT signaling by measuring upregulation of E-cadherin protein expression at 10 uM in presence of olaparib by western blot analysis; format: functional, cell-based
SK-OV-3 [2] = assay: Potentiation of olaparib sensitivity in human SK-OV-3 cells transfected with shFHL1-1 RNA assessed as inhibition of cell invasion at 10 uM measured after 48 hrs in presence of olaparib by Transwell assay; format: functional, cell-based
A2780 [3] = assay: Potentiation of olaparib sensitivity in human A2780 cells transfected with shFHL1-2 RNA assessed as inhibition of cell invasion at 10 uM measured after 48 hrs in presence of olaparib by Transwell assay; format: functional, cell-based
SK-OV-3 [4] = assay: Effect on FHL1 mRNA expression in human SK-OV-3 cells at 5 to 20 uM by real-time PCR analysis; format: functional, cell-based; conditions: dose 5-20 µM
[5] = Toxicity in BALB/c mouse xenografted with human A2780 cells assessed as animal's death at 30 mg/kg, ip administered every other day and measured on day 6; format: organism-based; conditions: in vivo, 144 h, time 6 day
A2780 [6] = assay: Potentiation of olaparib-induced antitumor activity against shFHL1-1 RNA-transfected human A2780 cells xenografted in BALB/c mouse assessed as decrease in tumor volume at 15 mg/kg, ip co-administered with olaparib for 2 weeks; format: functional, organism-based
Mus musculus [7] = assay: Potentiation of olaparib sensitivity in BALB/c mouse xenografted with shNC RNA-transfected human A2780 cells assessed as upregulation of FHL1 protein expression in tumor at 15 mg/kg, ip co-administered with olaparib for 2 weeks by western blot analysis; format: functional, organism-based
A2780 [8] = assay: Downregulation of EMT signalling in human A2780 cells transfected with shFHL1-1 RNA assessed as E-cadherin protein expression at 10 uM by western blot analysis; format: functional, cell-based
SK-OV-3 [9] = assay: Potentiation of olaparib sensitivity in human SK-OV-3 cells transfected with shFHL1-1 RNA assessed as inhibition of cell migration at 10 uM measured after 24 to 48 hrs in presence of olaparib by wound healing assay; format: functional, cell-based; conditions: time 24-48 hrs
A2780 [10] = assay: Potentiation of olaparib-induced antitumor activity against human A2780 cells xenografted in BALB/c mouse assessed as decrease in tumor volume at 15 mg/kg, ip co-administered with olaparib for 2 weeks; format: functional, organism-based
A2780 [11] = assay: Potentiation of olaparib sensitivity in human A2780 cells transfected with shFHL1-1 RNA assessed as inhibition of cell invasion at 10 uM measured after 48 hrs in presence of olaparib by Transwell assay; format: functional, cell-based
A2780 [12] = assay: Potentiation of olaparib sensitivity in human A2780 cells assessed as downregulation of EMT signaling by measuring upregulation of E-cadherin protein expression at 10 uM in presence of olaparib by western blot analysis; format: functional, cell-based
SK-OV-3 [13] = assay: Inhibition of cell migration in human SK-OV-3 cells transfected with shFHL1-2 RNA at 10 uM measured after 24 to 48 hrs by wound healing assay; format: functional, cell-based; conditions: time 24-48 hrs
Mus musculus [14] = assay: Potentiation of olaparib sensitivity in BALB/c mouse xenografted with shFHL1-1 RNA-transfected human A2780 cells assessed as downregulation of vimentin protein expression in tumor at 15 mg/kg, ip co-administered with olaparib for 2 weeks by western blot analysis; format: functional, organism-based
A2780 [15] = assay: Potentiation of olaparib sensitivity in human A2780 cells transfected with shFLH1-2 RNA assessed as downregulation of EMT signaling by measuring N-cadherin protein expression at 10 uM in presence of olaparib by western blot analysis; format: functional, cell-based
A2780 [16] = assay: Potentiation of olaparib sensitivity in human A2780 cells transfected with shFLH1-2 RNA assessed as downregulation of EMT signaling by measuring vimentin protein expression at 10 uM in presence of olaparib by western blot analysis; format: functional, cell-based
A2780 [17] = assay: Potentiation of olaparib sensitivity in human A2780 cells assessed as downregulation of EMT signaling by measuring downregulation of vimentin protein expression at 10 uM in presence of olaparib by western blot analysis; format: functional, cell-based
A2780 [18] = assay: Synergistic antiproliferative activity against human A2780 cells assessed as combination index for reduction of cell viability in presence of olaparib by CCK8 assay; format: functional
A2780 [19] = assay: Inhibition of cell invasion in human A2780 cells transfected with shFHL1-1 RNA at 10 uM measured after 48 hrs by Transwell assay; format: functional, cell-based
SK-OV-3 [20] = assay: Inhibition of cell migration in human SK-OV-3 cells at 10 uM measured after 24 to 48 hrs by wound healing assay; format: functional, cell-based; conditions: time 24-48 hrs
SK-OV-3 [21] = assay: Downregulation of EMT signalling in human SK-OV-3 cells assessed as downregulation of N-cadherin protein expression at 10 uM by western blot analysis; format: functional, cell-based
A2780 [22] = assay: Downregulation of EMT signalling in human A2780 cells transfected with shFHL1-2 RNA assessed as N-cadherin protein expression at 10 uM by western blot analysis; format: functional, cell-based
SK-OV-3 [23] = assay: Inhibition of cell invasion in human SK-OV-3 cells transfected with shFHL1-1 RNA at 10 uM measured after 48 hrs by Transwell assay; format: functional, cell-based
A2780 [24] = assay: Antitumor activity against human A2780 cells xenografted in BALB/c mouse assessed as decrease in tumor volume at 5 to 15 mg/kg, ip administered every other day for 2 weeks; format: functional, organism-based; conditions: dose 5-15 mg/kg
Mus musculus [25] = assay: Potentiation of olaparib sensitivity in BALB/c mouse xenografted with shFHL1-1 RNA-transfected human A2780 cells assessed as upregulation of E-cadherin protein expression in tumor at 15 mg/kg, ip co-administered with olaparib for 2 weeks by western blot analysis; format: functional, organism-based
SK-OV-3 [26] = assay: Potentiation of olaparib sensitivity in human SK-OV-3 cells transfected with shFLH1-1 RNA assessed as downregulation of EMT signaling by measuring vimentin protein expression at 10 uM in presence of olaparib by western blot analysis; format: functional, cell-based
Mus musculus [27] = assay: Potentiation of olaparib sensitivity in BALB/c mouse xenografted with shNC RNA-transfected human A2780 cells assessed as upregulation of E-cadherin protein expression in tumor at 15 mg/kg, ip co-administered with olaparib for 2 weeks by western blot analysis; format: functional, organism-based
SK-OV-3 [28] = assay: Potentiation of olaparib sensitivity in human SK-OV-3 cells assessed as induction of DNA damage response by measuring increase in tail moment at 10 uM measured after 48 hrs in presence of olaparib by alkaline comet assay; format: functional, cell-based
[29] = Toxicity in BALB/c mouse xenografted with human A2780 cells assessed as effect on body weight at 5 to 15 mg/kg, ip administered every other day for 2 weeks; format: organism-based; conditions: in vivo, 336 h, dose 5-15 mg/kg
SK-OV-3 [30] = assay: Potentiation of olaparib sensitivity in human SK-OV-3 cells transfected with shFLH1-2 RNA assessed as downregulation of EMT signaling by measuring E-cadherin protein expression at 10 uM in presence of olaparib by western blot analysis; format: functional, cell-based
A2780 [31] = assay: Potentiation of olaparib-induced antitumor activity against shNC RNA-transfected human A2780 cells xenografted in BALB/c mouse assessed as decrease in lung metastatic nodules at 15 mg/kg, ip co-administered with olaparib every other day from day 6 of tumor cell inoculation and measured on day 30 post-tumor cell inoculation by H and E staining based bright field microscopic analysis; format: functional, organism-based; conditions: time 24.0 day

For CC[C@]12C=CCN3CC[C@]4(C(=C(C(=O)OC)C1)Nc1ccccc14)[C@@H]32 [TABERSONINE], the Activity (SK-OV-3 [1]) was “Active”, the Activity (SK-OV-3 [2]) was “inactive” and the Activity (A2780 [3]) was “inactive”. The Activity (SK-OV-3 [4]) was “inactive”, the Activity [5] was “Toxic” and the Activity (A2780 [6]) was “inactive”. For the same molecule, the Activity (Mus musculus [7]) was “Active”, the inhibition (A2780 [8]) was “inactive” and the Activity (SK-OV-3 [9]) was “inactive”. The Activity (A2780 [10]) was “Active”, the Activity (A2780 [11]) was “inactive” and the Activity (A2780 [12]) was “Active”. The inhibition (SK-OV-3 [13]) was “inactive”, the Activity (Mus musculus [14]) was “inactive” and the Activity (A2780 [15]) was “inactive”. For the same molecule, the Activity (A2780 [16]) was “inactive”, the Activity (A2780 [17]) was “Active” and the CI (A2780 [18]) was <1. For the same molecule, the inhibition (A2780 [19]) was “inactive”, the inhibition (SK-OV-3 [20]) was “Active” and the inhibition (SK-OV-3 [21]) was “Active”. The inhibition (A2780 [22]) was “inactive”, the inhibition (SK-OV-3 [23]) was “inactive” and the Activity (A2780 [24]) was “Active”. The Activity (Mus musculus [25]) was “inactive”, the Activity (SK-OV-3 [26]) was “inactive” and the Activity (Mus musculus [27]) was “Active”. The Activity (SK-OV-3 [28]) was “Active”, the Activity [29] was “Non-Toxic” and the Activity (SK-OV-3 [30]) was “inactive”. For the same molecule, the Activity (A2780 [31]) was “Active”.

Reference: ChEMBL document CHEMBL5385929, “Tabersonine Enhances Olaparib Sensitivity through FHL1-Mediated Epithelial-Mesenchymal Transition in an Ovarian Tumor” (J Nat Prod, 2024)
